# Measured values from article PMC11630551, “In silico screening of protein-binding peptides with an application to developing peptide inhibitors against antibiotic resistance” (PNAS Nexus, 2024).
# “Also recorded” adds a separate entry of the source.
# Biological target: T1, TEM-1 β-lactamase (Escherichia coli, UniProt P62593)
# T1 construct: host or cells: E. coli BL21 (DE3)
# Assay: not given
# Format: biochemical
# Conditions: not given
# T1 sequence (P62593 24-286 limits assumed): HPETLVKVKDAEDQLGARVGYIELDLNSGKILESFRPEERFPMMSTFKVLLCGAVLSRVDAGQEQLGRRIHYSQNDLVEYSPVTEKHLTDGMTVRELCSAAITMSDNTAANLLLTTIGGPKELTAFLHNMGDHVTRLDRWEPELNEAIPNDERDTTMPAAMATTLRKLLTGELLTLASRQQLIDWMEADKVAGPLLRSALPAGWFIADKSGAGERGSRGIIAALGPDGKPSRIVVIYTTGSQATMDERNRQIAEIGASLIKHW
row,Sequence,change of β-lactamase activity of TEM-1 at peptide screening concentration
1,ASRAEVDAAAKGAA [TF8],did not exhibit significant inhibition
2,AKYFEQASYG [TF6],increased the β-lactamase activity; also recorded: did not exhibit significant inhibition
3,EYGDAWHDAG [TF4],did not exhibit significant inhibition
4,ARDATCRRWG [TF3],increased the β-lactamase activity; also recorded: did not exhibit significant inhibition
5,RDSVGAASVN [TF9],did not exhibit significant inhibition

# System: not listed separately
# Assay: Solubility of synthesized peptides
# Conditions: excluded from assay experiments
row,Sequence,solubility
1,ESYHGMLACVIAG [TF10],poor solubility
